Experimental data published in patent US11447504B2, “Macrocyclic chlorine substituted indole derivatives” (Bayer Aktiengesellschaft, priority 2017, dated 2022).
Where a name gives a salt, the structure may show the parent alone. Read-outs that look alike come from different tables or passages of the source.

What was measured:
SUDHL5 [1] = assay: Induction of caspase-3/7 activity (Assay 4), SUDHL5; type: cell-based; details: SUDHL5 cells
Method in brief: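 DLBCL cells treated with compounds for 3 hours at 37° C. Caspase-3/7 activity measured by Caspase-Glo 3/7 luminescence, with medium-only background subtracted.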

AMO-1 = assay: Antiproliferation assay 7, AMO-1; type: cell-based; details: AMO-1 cells, CellTiter-Glo, read-out: Antiproli AMO-1 IC50 median
Method in brief: (§1)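 CellTiter-Glo luminescence readout; 72 h compound exposure, 37° C, humidified. Day 0 reference plate read at plating for time-zero baseline.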

SUDHL10 [2] = assay: Induction of cytotoxicity (Assay 6), SUDHL10
SUDHL5 [3] = assay: Induction of cytotoxicity (Assay 6), SUDHL5
Method: Assay 6 Induction of Cytotoxicity Upon Treatment of Cells with Selected Compounds
Therefore, cytotoxicity assays were run in parallel in SUDHL5 and SUDHL10 cells.
The different cell lines were plated in culture medium (RPMI 1640 [GIBCO #22400-089]supplemented with 10% Fetal Bovine Serum) at a density of 3,300 cells in 30 μL/well in a sterile, solid black, flat bottom, polystyrene, TC-treated 384-well microplate (Corning #3571) using Multidrop Combi Reagent Dispenser. As a control, medium without cells was also added to the plate. Cells were incubated in a humidified incubator at 37° C. overnight. […] Rim wells were excluded. The cells were incubated for 5 hours in a humidified incubator at 37° C. After this incubation, 30 μL of CellTiter-Glo® Luminescent Cell Viability reagent (Promega, G7573) was added to each well using the Multidrop Combi Reagent Dispenser, followed by 15 minutes incubation on a shaker at room temperature. Finally, luminescence was read at 0.1 ms, with a gain of 3000 using the PHERAstar FS microplate reader (BMG Labtech).

HMC-1-8 = assay: Antiproliferation assay 7, HMC-1-8; type: cell-based; details: 72 h, HMC-1-8 cells, CellTiter-Glo, read-out: Antiproli HMC-1-8 IC50 median
Method: (§2) Assessment of the Anti-Proliferative Effect of Compounds in Different Cell Lines
(§3) The impact of compounds on the proliferation of different cell lines was assessed using the CellTiter-Glo® Luminescent Cell Viability reagent from Promega (G7573).
(§4) In parallel, cells were plated in a reference (day 0) plate for time zero determination.
(§5) Rim wells were excluded. The cells were incubated for 72 hours in a humidified incubator at 37° C. The day 0 plate was measured by adding 30 μL/well of CTG solution (CellTiter-Glo® Luminescent Cell Viability reagent, Promega G7573) to time zero wells in the reference plate followed by a 10 minutes incubation and luminescence reading at 0.1 ms. using the PHERAstar FS microplate reader (BMG Labtech).
(§6) After 72 hours incubation, the treated plates were measured in the same way as the day 0 plate mentioned above.

MV-4-11 = assay: Antiproliferation assay 7, MV-4-11; type: cell-based; details: MV-4-11 cells, CellTiter-Glo, read-out: Antiproli MV-4-11 IC50 median
Method: as §2, §3, §4, §5, §6

SUDHL5 [4] = assay: Antiproliferation assay 7, SUDHL5; type: cell-based; details: SUDHL5 cells, CellTiter-Glo, read-out: Antiproli SUDHL5 IC50 (median)
Method in brief: as §1

SUDHL10 [5] = assay: Induction of caspase-3/7 activity (Assay 4), SUDHL10; type: cell-based; details: SUDHL10 cells
Method in brief: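 Luminescent Caspase-Glo 3/7 read-out after a 3 h, 37 °C compound exposure of the DLBCL line SUDHL10. Values are background-corrected using medium-only wells.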

MCL-1 = MCL-1 (Homo sapiens (Human), UniProt Q07820, K194A/K197A/R201A); assay: Protein-protein interaction assay MCL-1/Noxa BH3 peptide (MCL-1 Assay, TR-FRET); type: binding; details: read-out: MCL-1 Assay IC50 (median)
MCL-1, sequence (Q07820 whole entry K194A/K197A/R201A, looked up, the tested form may be a part): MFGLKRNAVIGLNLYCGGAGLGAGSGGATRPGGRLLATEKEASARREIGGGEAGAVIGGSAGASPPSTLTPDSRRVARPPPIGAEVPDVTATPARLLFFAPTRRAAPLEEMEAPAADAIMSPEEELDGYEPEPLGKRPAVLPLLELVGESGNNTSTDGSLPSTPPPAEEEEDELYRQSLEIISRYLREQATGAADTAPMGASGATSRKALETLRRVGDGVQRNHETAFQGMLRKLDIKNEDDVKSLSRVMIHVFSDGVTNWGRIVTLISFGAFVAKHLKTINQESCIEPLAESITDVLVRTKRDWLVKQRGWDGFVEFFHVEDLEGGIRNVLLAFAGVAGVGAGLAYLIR
Method: The dose-dependent inhibition by the compounds described in this invention of the interaction between MCL-1 and the BH3 domain of Noxa (both human) was determined using a steady state binding competition assay with time-resolved fluorescence energy transfer (TR-FRET) readout. […] The MBP-MCL-1 was purchased from Beryllium (Bedford, Mass., USA). The expression and purification of this protein construct has been described elsewhere (DOI:10.1371/journal.pone.0125010). The Noxa BH3-derived peptide can be obtained from e.g. Biosyntan (Berlin, Germany).
For that, 100-fold concentrated DMSO solutions were prepared by serial dilutions (1:3.4) of a 2 mM stock solution in a clear, 384-well microtiter plate (Greiner Bio-One, Frickenhausen, Germany). From there, 50 nl were transferred in a dark test plate (Greiner Bio-One, Frickenhausen, Germany). […] This was followed by a 10-minute incubation step at 22° C. for pre-equilibration of the putative complex between MBP-MCL-1 and the compounds.
The mixture was incubated in the dark for one hour at 22° C. and then overnight at 4° C.
The resulting data (ratio) were normalized, taking 0% inhibition as the mean value of control measurements (usually 32 data points) where all reagents were included. In this case 50 nl DMSO were used instead of compounds. […] IC50 values were determined by regression analysis based on a 4 parameter equation (minimum, maximum, IC50, Hill; Y=Max+(Min−Max)/(1+(X/IC50)^Hill) using the Screener Software (Genedata).

[6] = 3 hours, Caspase-Glo 3/7, read-out: Caspase SUDHL5 EC50 (median)
[7] = read-out: Cytotox SUDHL10 IC50 (median), SUDHL10 cells, 5 hours, CellTiter-Glo
[8] = read-out: Cytotox SUDHL5 IC50 (median), SUDHL5 cells, 5 hours, CellTiter-Glo
[9] = 3 hours, Caspase-Glo 3/7, read-out: Caspase SUDHL10 EC50 (median)

Row | Structure (SMILES) | EC50 (SUDHL5 [1]; [6]) [nM] | IC50 (AMO-1; Homo sapiens, AMO1, 72 h) [nM] | IC50 (SUDHL10 [2]; [7]) [nM] | IC50 (SUDHL5 [3]; [8]) [nM] | IC50 (HMC-1-8) [nM] | IC50 (MV-4-11; 72 hours) [nM] | EC50 (SUDHL5 [1]; Homo sapiens, SU-DHL-5, 3 h, Caspase-Glo 3/7, read-out: Caspase SUDHL5 EC50 (median)) [nM] | IC50 (SUDHL5 [4]; Homo sapiens, SU-DHL-5, 72 h) [nM] | IC50 (SUDHL10 [2]; Homo sapiens, SU-DHL10, 5 h, read-out: Cytotox SUDHL10 IC50 (median), SUDHL10 cells, 5 hours, CellTiter-Glo) [nM] | IC50 (SUDHL5 [3]; Homo sapiens, SU-DHL-5, 5 h, read-out: Cytotox SUDHL5 IC50 (median), SUDHL5 cells, 5 hours, CellTiter-Glo) [nM] | EC50 (SUDHL10 [5]; Homo sapiens, SU-DHL10, 3 h, Caspase-Glo 3/7, read-out: Caspase SUDHL10 EC50 (median)) [nM] | IC50 (MV-4-11; Homo sapiens, MV4-11, 72 h) [nM] | IC50 (AMO-1; 72 hours) [nM] | IC50 (MCL-1) [nM] | EC50 (SUDHL10 [5]; [9]) [nM] | IC50 (SUDHL5 [4]; 72 hours) [nM]
1 | CCc1c2c(nn1C)CN(C)CCCCn1c(C(=O)O)c(CCCOc3cccc4ccccc34)c3ccc(Cl)c-2c31 (single isomer, unassigned; enantiomer 1) [Example 23, 4-chloro-3-ethyl-2,14-dimethyl-7-[3-(naphthalen-1-yloxy)propyl]-10,11,12,13,14,15-hexahydro-2H-pyrazolo[3′,4′:8,9][1,6]diazacycloundecino[10,11,1-hi]indole-8-carboxylic Acid (Enantiomer 1)] | 92 | 613 | 310 | 140 | 5160 | 387 |  |  |  |  |  |  |  |  |  | 
2 | Cc1c2c(nn1C)COCCCCn1c(C(=O)O)c(CCCOc3cccc4cc(F)ccc34)c3ccc(Cl)c-2c31 (single isomer, unassigned; enantiomer 1) [Example 16, (−)-4-chloro-7-{3-[(6-fluoronaphthalen-1-yl)oxy]propyl}-2,3-dimethyl-2,10,11,12,13,15-hexahydropyrazolo[4′,3′:9,10][1,6]oxazacycloundecino[8,7,6-hi]indole-8-carboxylic Acid (Enantiomer 1)] |  | 519 |  |  | 1250 |  | 150 | 210 | 660 | 220 | 380 | 524 |  |  |  | 
3 | Cc1c2c(nn1C)COCC1CC1Cn1c(C(=O)O)c(CCCOc3cccc4ccccc34)c3ccc(Cl)c-2c31 (single isomer, unassigned; stereoisomer 2) [Example 66, (9aR,10aS or 9aS, 10aR)-3-chloro-4,5-dimethyl-14-{3-[(naphthalen-1-yl)oxy]propyl}-5,7,9a, 10,10a, 11-hexahydro-9H-cyclopropa[3,4]pyrazolo[4′,3′:9,10][1,6]oxazacycloundecino-[8,7,6-hi]indole-13-carboxylic Acid—Stereoisomer 2] | 550 |  | 1400 | 910 |  |  |  |  |  |  |  |  | 1520 | 1.7 | 3500 | 
4 | CCc1nn(C)c2c1-c1c(Cl)ccc3c(CCCOc4cccc5cc(F)ccc45)c(C(=O)O)n(c13)CCCCOC2 (single isomer, unassigned; enantiomer 1) [Example 34, (+)-4-chloro-3-ethyl-7-{3-[(6-fluoronaphthalen-1-yl)oxy]propyl}-1-methyl-1,10,11,12,13,15-hexahydropyrazolo[4′,3′:9,10][1,6]oxazacycloundecino[8,7,6-hi]indole-8-carboxylic Acid (Enantiomer 1)] | 380 |  |  | 530 | 2030 | 1260 |  |  |  |  |  |  | 1410 |  |  | 620
5 | CCc1nn(CCN2CCOCC2)c2c1-c1c(Cl)ccc3c(CCCOc4cccc5ccccc45)c(C(=O)O)n(c13)CCCCN(C)C2 (single isomer, unassigned; enantiomer 1) [Example 46, 4-chloro-3-ethyl-14-methyl-1-[2-(morpholin-4-yl)ethyl]-7-{3-[(naphthalen-1-yl)oxy]propyl}-10,11,12,13,14,15-hexahydro-1H-pyrazolo[3′,4′:8,9][1,6]diazacycloundecino[10,11,1-hi]indole-8-carboxylic Acid (Enantiomer 1)] | 160 |  | 300 | 180 | 819 | 490 |  |  |  |  |  |  | 180 |  | 400 | 200
6 | CCc1c2c(nn1C)COCCCCn1c(C(=O)O)c(CCCOc3cccc4cc(F)ccc34)c3ccc(Cl)c-2c31 (single isomer, unassigned; enantiomer 1) [Example 37, (+)-4-chloro-3-ethyl-7-{3-[(6-fluoronaphthalen-1-yl)oxy]propyl}-2-methyl-2,10,11,12,13,15-hexahydropyrazolo[4′,3′:9,10][1,6]oxazacycloundecino[8,7,6-hi]indole-8-carboxylic acid-N-ethylethanamine Salt (Enantiomer 1)] | 170 |  |  | 200 | 1130 | 377 |  |  |  |  |  |  | 363 |  |  | 280
7 | CCc1c2c(nn1C)CN(C)CCCCn1c(C(=O)O)c(CCCOc3cccc4cc(F)ccc34)c3ccc(Cl)c-2c31 (single isomer, unassigned; enantiomer 1) [Example 6, 4-chloro-3-ethyl-7-{3-[(6-fluoronaphthalen-1-yl)oxy]propyl}-2,14-dimethyl-10,11,12,13,14,15-hexahydro-2H-pyrazolo[3′,4′:8,9][1,6]diazacycloundecino[10,11,1-hi]indole-8-carboxylic Acid (Enantiomer 1)] | 130 |  | 350 | 190 | 1210 | 79.4 |  |  |  |  |  |  | 369 |  | 340 | 230
8 | CCc1nn(CCN2CCOCC2)c2c1-c1c(Cl)ccc3c(CCCOc4cccc5ccccc45)c(C(=O)O)n(c13)C/C=C\CN(C)C2 (single isomer, unassigned; enantiomer 1) [Example 43, (11Z)-4-chloro-3-ethyl-14-methyl-1-[2-(morpholin-4-yl)ethyl]-7-{3-[(naphthalen-1-yl)oxy]propyl}-10,13,14,15-tetrahydro-1H-pyrazolo[3′,4′:8,9][1,6]diazacycloundecino[10,11,1-hi]indole-8-carboxylic Acid-Ammonia Salt (Enantiomer 1)] | 620 |  | 1200 | 700 | 2060 | 1380 |  |  |  |  |  |  | 1130 |  | 1600 | 950
9 | CCc1nn(C)c2c1-c1c(Cl)ccc3c(CCCOc4cccc5cc(F)ccc45)c(C(=O)O)n(c13)CCCCN(C)C2 (single isomer, unassigned; enantiomer 1) [Example 40, 4-chloro-3-ethyl-7-{3-[(6-fluoronaphthalen-1-yl)oxy]propyl}-1,14-dimethyl-10,11,12,13,14,15-hexahydro-1H-pyrazolo[3′,4′:8,9][1,6]diazacycloundecino[10,11,1-hi]indole-8-carboxylic Acid (Enantiomer 1)] | 140 |  | 290 | 110 | 695 | 95.5 |  |  |  |  |  |  | 539 |  | 310 | 150
